# Reference: patent US20250275537A1, “CARBOXAMIDE APYRASE INHIBITORS” (Texas Crop Science, Inc., priority 2024, published 2025)
# Tested on: apyrase
# Experiment: Apyrase inhibition assay (Method 1)
# Assay type: biochemical
# Settings: inhibitor conc at 1 mM stock, 10 μl per well; 1 hr room temperature; rounded average of at least two assay results
# Method: Apyrase inhibitors useful as enhancers of pesticidal activity are assessed using an in vitro assay. The method of Windsor, Bio Techniques 33:1024-1030 (November 2002) was used as follows
# 96 well plates were used for the assay: (Greiner bio-one: REF-655901-96 well, PS, F-bottom, Clear, Non-binding)
# • Reaction Buffer: 60 mM Hepes, 3 mM MgCl2, 3 mM CaCl2 and 3 mM ATP (pH 6.5) • Development Buffer A: 2% aqueous ammonium molybdate • Development Buffer B: 11% ascorbic acid in 37.5% TCA in water • Stop buffer C: 2% trisodium citrate in 2% acetic acid solution in water • Add 100 μl of reaction buffer to each well. • Add 10 μl of DMSO (control) or inhibitor/compound or compounds such as N1915 or orthovanadate to each well. (use inhibitor conc at 1 mM; orthovanadate at 2 mM and N1915 at 1 mM) • Add 10 μl of apyrase (concentration based on optimization —Dilute 1 U/μl enzyme to different concentrations such as 0.1U, 0.05U, 0.0025, 0.001U, 0.0005U—to find a good range) • Incubate plate at room temperature for 1 hr • Mix development buffer A and B in the ratio of 1:1.5 (just before use). • Add 50 ul of A:B mix in each well (incubate for 2 mins) • Add 50 ul of C in each well • Measure/Read Absorbance of plate @630 nm
# Inhibitory data for the apyrase assay described above are provided for selected compounds in Table 3. In Table 3, D indicates inhibition of <10%.
# With reference to Table 3, percent inhibition of apyrase is reported as the rounded average of at least two assay results.
row,SMILES,% Inhibition of Apyrase
1,"O=C(Nc1ccc2c(c1)OCCO2)c1ccc(C(=O)Nc2ccc3c(c2)OCCO3)cc1 [Compound I-6, N^1,N^4-bis(2,3-dihydrobenzo[b][1,4]dioxin-6-yl)terephthalamide]",A (A indicates inhibition above 30%)
2,"CNC(=O)c1cccc(C(=O)Nc2ccc3[nH]c(=O)sc3c2)c1 [Compound I-50, N^1-methyl-N^3-(2-oxo-2,3-dihydrobenzo[d]thiazol-6-yl)isophthalamide]",D (D indicates inhibition of <10%)
3,"COc1cc(NC(=O)c2ccc(C(=O)Nc3cc(OC)cc(OC)c3)cc2)cc(OC)c1 [Compound I-20, N1,N4-bis(3,5-dimethoxyphenyl)terephthalamide]",C (C indicates inhibition of from 10% to 20%)
4,"Cc1nc(NC(=O)c2ccc(C(=O)Nc3ccccc3)cc2)n[nH]1 [Compound I-39, N^1-(5-methyl-1H-1,2,4-triazol-3-yl)-N^4-phenylterephthalamide]",D (D indicates inhibition of <10%)
5,"O=C(Nc1cccc2c1CNC2=O)c1cccc(C(=O)Nc2cccc3c2CNC3=O)c1 [Compound I-54, N^1,N^3-bis(1-oxoisoindolin-4-yl)isophthalamide]",D (D indicates inhibition of <10%)
6,"O=C1CCCc2cc(NC(=O)c3cccc(C(=O)Nc4ccc5c(c4)CCCC(=O)N5)c3)ccc2N1 [Compound I-36, N^1,N^3-bis(2-oxo-2,3,4,5-tetrahydro-1H-benzo[b]azepin-7-yl)isophthalamide]",C (C indicates inhibition of from 10% to 20%)
7,"O=C(Nc1ccccc1)c1cccc(C(=O)Nc2cc3c(cc2Cl)OCO3)c1 [Compound I-4, N^1-(6-chlorobenzo[d][1,3]dioxol-5-yl)-N3-phenylisophthalamide]",A (A indicates inhibition above 30%)
8,"CC(C)n1cc2ccc(NC(=O)c3ccc4c(c3)C(=O)NC4=O)cc2n1 [Compound I-24, N-(2-isopropyl-2H-indazol-6-yl)-1,3-dioxoisoindoline-5-carboxamide]",C (C indicates inhibition of from 10% to 20%)
9,"CC1(C)NC(=O)N(c2cccc(NC(=O)c3cccc(C(=O)Nc4ccccc4)c3)c2)C1=O [Compound I-11, N^1-(3-(4,4-dimethyl-2,5-dioxoimidazolidin-1-yl)phenyl)-N^3-phenylisophthalamide]",B (B indicates inhibition of from 20% to 30%)
10,"CC(C)Cn1c(=O)c2ccccc2c(=O)n1C [Compound I-15, 2-isobutyl-3-methyl-2,3-dihydrophthalazine-1,4-dione]",B (B indicates inhibition of from 20% to 30%)
11,"CN(C(=O)c1cccc(C(=O)Nc2cc(Br)ccc2F)c1)c1ccccc1 [Compound I-65, N^1-(5-bromo-2-fluorophenyl)-N3-methyl-N^3-phenylisophthalamide]",D (D indicates inhibition of <10%)
12,"CN(C(=O)c1ccccc1C(=O)Nc1cccc(C(F)(F)F)c1)C1CCCCC1 [Compound I-43, N^1-cyclohexyl-N^1-methyl-N^2-(3-(trifluoromethyl)phenyl)phthalamide]",D (D indicates inhibition of <10%)
13,"COc1ccc(NC(=O)c2ccc(C(=O)Nc3ccc(OC)cc3OC)cc2)c(OC)c1 [Compound I-45, N^1,N^4-bis(2,4-dimethoxyphenyl)terephthalamide]",D (D indicates inhibition of <10%)
14,"COc1ccc(C)cc1NC(=O)c1ccccc1C(=O)N(C)C1CCCCC1 [Compound I-8, N^1-cyclohexyl-N^2-(2-methoxy-5-methylphenyl)-N^1-methylphthalamide]",A (A indicates inhibition above 30%)
15,"COCC#CCn1c(=O)c2ccccc2c(=O)n1C [Compound I-31, 2-(4-methoxybut-2-yn-1-yl)-3-methyl-2,3-dihydrophthalazine-1,4-dione]",C (C indicates inhibition of from 10% to 20%)
16,"O=C(Nc1ccc(-c2c[nH]cn2)cc1)c1cccc(C(=O)Nc2ccc(-c3c[nH]cn3)cc2)c1 [Compound I-17, N^1,N^3-bis(4-(1H-imidazol-4-yl)phenyl)isophthalamide]",B (B indicates inhibition of from 20% to 30%)
17,"O=C(Nc1ccc(OC(F)(F)C(F)F)cc1)c1cccc(C(=O)Nc2ccc(OC(F)(F)C(F)F)cc2)c1 [Compound I-62, N^1,N^3-bis(4-(1,1,2,2-tetrafluoroethoxy)phenyl)isophthalamide]",A (A indicates inhibition above 30%)
18,"CCCNC(=O)c1cccc(C(=O)Nc2ccc3c[nH]nc3c2)c1 [Compound I-52, N^1-(2H-indazol-6-yl)-N^3-propylisophthalamide]",D (D indicates inhibition of <10%)
19,"O=C(Nc1ccccc1)c1ccc(C(=O)Nc2cc3n(n2)CCC3)cc1 [Compound I-34, N^1-(5,6-dihydro-4H-pyrrolo[1,2-b]pyrazol-2-yl)-N^4-phenylterephthalamide]",C (C indicates inhibition of from 10% to 20%)
20,"CCNC(=O)c1cc(NC(=O)c2ccc(C(=O)Nc3ccccc3)cc2)nc2ccccc12 [Compound I-13, N^1-(4-(ethylcarbamoyl)quinolin-2-yl)-N^4-phenylterephthalamide]",B (B indicates inhibition of from 20% to 30%)
21,"O=C(NCc1ccccc1)c1ccccc1C(=O)NCc1ccccc1 [Compound I-30, N^1,N^2-dibenzylphthalamide]",C (C indicates inhibition of from 10% to 20%)
22,"CCc1noc(C)c1Cn1c(=O)c2ccccc2c(=O)n1C [Compound I-21, 2-((3-ethyl-5-methylisoxazol-4-yl)methyl)-3-methyl-2,3-dihydrophthalazine-1,4-dione]",C (C indicates inhibition of from 10% to 20%)
23,"Cc1cnc(NC(=O)c2ccc(C(=O)Nc3ccccc3)cc2)[nH]1 [Compound I-38, N^1-(5-methyl-1H-imidazol-2-yl)-N^4-phenylterephthalamide]",D (D indicates inhibition of <10%)
24,"CN(C)C(=O)c1ccccc1C(=O)Nc1ccc2c(c1)OCCCO2 [Compound I-12, N^1-(3,4-dihydro-2H-benzo[b][1,4]dioxepin-7-yl)-N^2,N^2-dimethylphthalamide]",B (B indicates inhibition of from 20% to 30%)

# Now from value to compound:
row,% Inhibition of Apyrase,SMILES
1,D (D indicates inhibition of <10%),"COc1ccccc1NC(=O)c1ccccc1C(=O)N(C)Cc1ccccc1 [Compound I-40, N^1-benzyl-N^2-(2-methoxyphenyl)-N1-methylphthalamide]"
2,A (A indicates inhibition above 30%),"Cc1cccc(CNC(=O)c2ccc(C(=O)Nc3cccc(-n4ccnn4)c3)cc2)c1 [Compound I-9, N^1-(3-(1H-1,2,3-triazol-1-yl)phenyl)-N^4-(3-methylbenzyl)terephthalamide]"
3,D (D indicates inhibition of <10%),"O=C(NCc1ncc[nH]1)c1ccc(C(=O)Nc2ccccc2)cc1 [Compound I-48, N^1-((1H-imidazol-2-yl)methyl)-N^4-phenylterephthalamide]"
4,D (D indicates inhibition of <10%),"CNC(=O)c1cccc(C(=O)Nc2ccc(NS(=O)(=O)C(F)(F)F)cc2)c1 [Compound I-56, N^1-methyl-N^3-(4-((trifluoromethyl)sulfonamido)phenyl)iso-phthalamide]"
5,A (A indicates inhibition above 30%),"CCOC(=O)c1ccc(NC(=O)c2cccc(C(=O)Nc3ccc(C(=O)OCC)cc3)c2)cc1 [Compound I-7, diethy 1 4,4′-(isophthaloylbis(azanediyl))dibenzoate]"
6,D (D indicates inhibition of <10%),"O=C(Nc1ccccc1)c1ccc(C(=O)Nc2cnn(CC3CCCO3)c2)cc1 (stereo not drawn) [Compound I-61, N^1-phenyl-N^4-(1-((tetrahydrofuran-2-yl)methyl)-1H-pyrazol-4-yl)terephthalamide]"
7,D (D indicates inhibition of <10%),"CN1CCN(C(=O)c2ccccc2C(=O)Nc2ccc(F)cc2)CC1 [Compound I-53, N-(4-fluorophenyl)-2-(4-methylpiperazine-1-carbonyl)benzamide]"
8,D (D indicates inhibition of <10%),"Cc1cc(C)c(NC(=O)c2ccc(C(=O)Nc3c(C)cc(C)cc3C)cc2)c(C)c1 [Compound I-51, N^1,N^4-dimesitylterephthalamide]"
9,D (D indicates inhibition of <10%),"Cn1c(=O)c2ccccc2c(=O)n1Cc1nnc(C2CC2)o1 [Compound I-59, 2-((5-cyclopropyl-1,3,4-oxadiazol-2-yl)methyl)-3-methyl-2,3-dihydrophthalazine-1,4-dione]"
10,D (D indicates inhibition of <10%),"CNC(=O)c1cccc(C(=O)Nc2cccc(NC3CCCC3)c2)c1 [Compound I-44, N^1-(3-(cyclopentylamino)phenyl)-N^3-methylisophthalamide]"
11,D (D indicates inhibition of <10%),"Nc1ccnc(CNC(=O)c2ccc(C(=O)Nc3ccccc3)cc2)n1 [Compound I-55, N^1-((4-aminopyrimidin-2-yl)methyl)-N^4-phenylterephthalamide]"
12,D (D indicates inhibition of <10%),Cc1nncn1CCNC(=O)c1ccc(C(=O)Nc2ccccc2)cc1 [Compound I-49]
